# In PMC6501643, “Crystal structure of human RIOK2 bound to a specific inhibitor” (Open Biology, 2019):
# Molecular target: T1, RIO kinase 2 (RIOK2) (Homo sapiens, UniProt Q9BVS4)
# T1 construct: residues 1–329
# Test: co-crystal structure ([…] Å) and ITC
# Type: binding
# T1 sequence (Q9BVS4 1-329): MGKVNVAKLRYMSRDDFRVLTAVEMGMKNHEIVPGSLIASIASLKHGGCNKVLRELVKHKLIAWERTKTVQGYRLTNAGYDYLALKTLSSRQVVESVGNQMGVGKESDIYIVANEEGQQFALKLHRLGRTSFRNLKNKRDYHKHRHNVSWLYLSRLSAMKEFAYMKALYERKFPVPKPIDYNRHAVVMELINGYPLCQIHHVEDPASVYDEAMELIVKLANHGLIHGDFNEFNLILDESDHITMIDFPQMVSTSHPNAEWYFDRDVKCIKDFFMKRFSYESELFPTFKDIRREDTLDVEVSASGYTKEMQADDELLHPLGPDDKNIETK
structure (smiles),measurement,value
O=C(Cc1ccc2ccccc2c1)Nc1ccccn1 [compound 9],Kd,393 nM
